Values quoted from earlier work as cited in patent publication US8853170B2, “Compositions comprising sugar-cysteine products” (Max International, LLC, priority 2010, dated 2014).

Key:
glutathione levels = conditions: mice, 8 mmol/kg i.p.
[1] = test system: acetaminophen hepatic and renal toxicity; conditions: mice, doses of 2 g/kg
[2] = test system: mice exposed to cyclophosphamide; conditions: 8 mmol/kg
[3] = test system: irradiation-induced bowel injury; conditions: mice, doses of 1 g/kg
ATP levels = conditions: dogs subjected to ischemia, about 3 g/day for at least 5 days
healthy humans = conditions: orally 8-10 g per day by an adult
humans = conditions: ribose administered directly to humans

Compound | increased glutathione levels, heart (glutathione levels; heart) | increased glutathione levels, muscle tissue (glutathione levels; muscle tissue) | protection against acetaminophen hepatic and renal toxicity [1] | delivery of protective amounts of cysteine [2] | protection against irradiation-induced bowel injury [3] | ATP levels (ATP levels) | exercise capacity (healthy humans) | toxicity (humans)
O=C(O)[C@@H]1CSC(C(O)C(O)C(O)CO)N1 (stereo partly drawn) [RibCys, 2(R,S)-D-ribo-(1′,2′,3′,4′-tetrahydroxybutyl)thiazolidine-4(R)-carboxylic acid] | 1.5 times | 2.5 times | protect mice against acetaminophen hepatic and renal toxicity | deliver effective protective amounts of cysteine | protect mice against irradiation-induced bowel injury | – | – | –
O=C[C@H](O)[C@H](O)[C@H](O)CO [ribose] | – | – | – | – | – | effectively restored and maintained ATP levels | increase exercise capacity | essentially non-toxic over wide dosage ranges
